Laboratory results reported in patent US20050119284A1, “ANTIVIRAL AGENTS AND METHODS OF USE” (priority 2003, published 2005).
Values joined by “and” are separate entries in the source; they are usually repeats but may differ in a detail not shown here. Equal entries are not always repeated. “Also recorded” adds a separate entry of the source.

Assays:
[1] = tested on: bovine viral diarrhea virus (BVDV); experiment: BVDV plaque assay in MDBK cells; format: cell-based; settings: for Pfu/microL Avg: average of three; for Pfu/microL: individual replicates; for Antiviral effect on BVDV in the presence of thymidine (in words): 1 mM thymidine, cytotoxicity blocked; for Antiviral effect on BVDV replication (in words): increasing concentrations; for Decrease in BVDV replication / viral titers: in the presence of 1 mM thymidine; for Effect on viral yield: MDBK cells with BVDV, without thymidine
[2] = tested on: MDBK cells; experiment: Host cell growth / cytotoxicity, mock-infected MDBK cells counted by flow cytometry; settings: for Decrease in cell growth: confluent MDBK cells, concentrations used for the AZA/MPA comparison; for Cellular cytotoxicity / cell viability at antiviral concentrations: MDBK cells, concentrations assayed
[3] = tested on: HCV 1 bN replicon; settings: 100 uM, 1 mM thymidine, 72 hours, Huh7
[4] = given to mice; cited from earlier work
[5] = tested on: MDBK cells
[6] = tested on: HCV 1 bN replicon; settings: two recent studies; cited from earlier work

## CC(=O)/C=C/Sc1ncnc2[nH]cnc12 [trans-AVTP, trans-6-(2-acetylvinylthio) purine]
[1]; 10 uM
  Antiviral activity compared between isomers: less antiviral than cis-AVTP
[1]; 10 microM
  Pfu/microL Avg: 65.67 Pfu/microL
  Pfu/microL: 53 Pfu/microL and 73 Pfu/microL and 71 Pfu/microL
[1]; 100 microM
  Pfu/microL Avg: 0.33 Pfu/microL
  Pfu/microL: 0.32 Pfu/microL and 0.38 Pfu/microL and 0.29 Pfu/microL

## Cn1cnc([N+](=O)[O-])c1Sc1ncnc2nc[nH]c12 [AZA, azathioprine]
[2]
  Decrease in cell growth: ~50%
[1]
  Antiviral effect on BVDV in the presence of thymidine (in words): the majority of the antiviral effect was maintained; also recorded: still occurred
  Decrease in BVDV replication / viral titers: two
[1]; MDBK cells, increasing AZA, 72 hours
  Inhibition of viral replication relative to inhibition of cell growth: 10-100 fold
[1]; MDBK cells
  Antiviral effect on BVDV replication (in words): sensitive; also recorded: specifically inhibited
[1]; at doses that achieved similar cytoxicity
  Decrease of BVDV replication relative to MPA: 10 fold
[1]; confluent MDBK cells, concentrations causing similar decrease in cell growth
  Virus produced per living cell, compared to cells grown in MPA: 12%
[1]; confluent MDBK cells, doses allowing similar cellular growth, 72 hours
  Amount of BVDV virus generated, AZA versus MPA: significantly less
[3]
  Amount of replicon compared to no drug: ~50%
  Increase in number of cycles to reach critical threshold (Ct) compared to no drug: ~1 cycle

## CC(=O)/C=C\Sc1ncnc2[nH]cnc12 [cis-AVTP, cis-6-(2-acetylvinylthio) purine]
[2]
  Cellular cytotoxicity / cell viability at antiviral concentrations: without cellular cytoxicity
[2]; listed as cisAVTP
  Cellular cytotoxicity / cell viability at antiviral concentrations: did not affect overall cell viability
[4]
  Levels of 6MP in the liver and gastrointestinal tract: high levels
  Side effects: no significant side effects
[1]
  Antiviral effect on BVDV in the presence of thymidine (in words): still occurs
[1]; 10 microM
  Pfu/microL Avg: 2 Pfu/microL
[1]; 10 microM, listed as cis
  Pfu/microL: 1.4 Pfu/microL and 2.5 Pfu/microL and 2.1 Pfu/microL
[1]; 100 microM
  Pfu/microL Avg: 0.35 Pfu/microL
[1]; 100 microM, listed as cis
  Pfu/microL: 0.34 Pfu/microL and 0.35 Pfu/microL and 0.36 Pfu/microL
[1]; MDBK cells
  Antiviral effect on BVDV replication (in words): sensitive; also recorded: significant anti-viral activity
[1]; MDBK cells, listed as cisAVTP
  Antiviral effect on BVDV replication (in words): able to inhibit

## CSc1ncnc2nc[nH]c12 [6-methyl mercaptopurine]
[1]
  Effect on viral yield: no effect
[5]
  Effect on cell growth: no effect

## Sc1ncnc2nc[nH]c12 [6-mercaptopurine]
[1]
  Antiviral effect on BVDV in the presence of thymidine (in words): significantly reduced; also recorded: still possessed this antiviral effect
  Effect on viral yield: decreased
  Decrease in BVDV replication / viral titers: 2 log
[1]; MDBK cells, listed as 6MP
  Antiviral effect on BVDV replication (in words): sensitive; also recorded: specifically inhibited
[5]
  Effect on cell growth: decreased
  Effect on cell growth in the presence of thymidine: neither azathioprine metabolite had an appreciable effect

## Nc1nc2nc[nH]c2c(=S)[nH]1 [6-thioguanine]
[1]
  Antiviral effect on BVDV in the presence of thymidine (in words): did not
  Effect on viral yield: decreased
  Decrease in BVDV replication / viral titers: did not
[1]; MDBK cells
  Antiviral effect on BVDV replication (in words): no antiviral affect
[5]
  Effect on cell growth: decreased
  Effect on cell growth in the presence of thymidine: neither azathioprine metabolite had an appreciable effect

## NC(=O)c1ncn([C@@H]2O[C@H](CO)[C@@H](O)[C@H]2O)n1 [ribavirin]
[6]
  Antiviral (Hepatitis GB) or anti-HCV replicon activity: weak

## OC[C@H]1O[C@@H](n2cnc3c(S)ncnc32)[C@H](O)[C@@H]1O [6TI, 6 thioinosine]
[1]; BVDV replication, FIG. 11
  Antiviral properties relative to 6MP: 2-3 fold

## COc1c(C)c2c(c(O)c1C/C=C(\C)CCC(=O)O)C(=O)OC2 [MPA, mycophenolate]
[2]
  Decrease in cell growth: ~50%
[5]
  Effect on cell growth: killed all the cells
